{"source": "patent US6002008A", "about": "“Substituted 3-cyano quinolines” (American Cyanamid Company, priority 1998, dated 1999)", "key": {"PC3": {"test_system": "PC3", "assay": "Inhibition of cancer cell growth as measured by cell number", "assay_type": "cell-based, human", "conditions": "PC3, 48 hours", "description": "(§1) The cell lines were chosen since they overexpressed epidermal growth factor receptor (EGFR) (i.e. A431) or HER2/neu (SKBR3), or had little to no expression of the these receptors (SW620, LOX, MCF7)."}, "[1]": {"test_system": "human epidermoid tumors (A431)", "assay": "In vivo inhibition of the growth of human epidermoid tumors (A431) in mice", "set-up": "species or system human tumor in BALB/c nu/nu female mice", "conditions": "for tumor growth was inhibited by: 100 mg/kg i.p. days 1-10", "protocol": "Representative compounds of this invention (listed below) were evaluated in an in vivo standard pharmacological test procedure which measured its ability to inhibit the growth of human epidermoid tumors. […] BALB/c nu/nu female mice (Charles River, Wilmington, Mass.) were used in this in vivo standard pharmacological test procedure. […] When tumors attained a mass of between 100 and 150 mg, the mice were randomized into treatment groups (day zero). Mice were treated IP once a day either on days 1, 5, and 9 or on days 1 through 10 post staging with doses of either 80, 40 or 20 mg/kg/dose of the compound to be evaluated in 0.2% Klucel. Control animals received no drug. Tumor mass was determined every 7 days [(length X width^2)/2] for 28 days post staging. Relative tumor growth (Mean tumor mass on days 7, 14, 21, and 28 divided by the mean tumor mass on day zero) is determined for each treatment group."}, "SW620": {"test_system": "SW620", "assay": "Inhibition of cancer cell growth as measured by cell number", "assay_type": "cell-based, human", "conditions": "SW620, 48 hours, Table 8", "description": "as §1"}, "A431": {"test_system": "A431", "assay": "Inhibition of cancer cell growth as measured by cell number", "assay_type": "cell-based, human", "conditions": "A431, 48 hours, Table 8", "description": "as §1"}, "SKBR3": {"test_system": "SKBR3", "assay": "Inhibition of cancer cell growth as measured by cell number", "assay_type": "cell-based, human", "conditions": "SKBR3, 48 hours, Table 8", "description": "as §1"}}, "data": [{"smiles": "CCOc1cc2ncc(C#N)c(Nc3cccc(Br)c3)c2cc1OCC", "note": "[Example 47, 4-[(3-Bromophenyl)amino]-6,7-diethoxy-3-quinolinecarbonitrile]", "values": [{"measurement": "Inhibition of Cancer Cell Growth as Measured by Cell Number (IC50)", "setting": "PC3", "value": 0.11, "unit": "µg/mL"}, {"measurement": "% T/C", "setting": "[1]; 40 mg/kg/dose IP days 1-10, day 7", "value": 69, "unit": "%"}, {"measurement": "% T/C", "setting": "[1]; 40 mg/kg/dose IP days 1-10, day 14", "value": 74, "unit": "%"}, {"measurement": "% T/C", "setting": "[1]; 40 mg/kg/dose IP days 1-10, day 21", "value": 116, "unit": "%"}, {"measurement": "% T/C", "setting": "[1]; 40 mg/kg/dose IP days 1-10, day 28", "value": 136, "unit": "%"}, {"measurement": "% T/C", "setting": "[1]; 50 mg/kg/dose IP days 1-10, day 7", "value": 44, "unit": "%"}, {"measurement": "% T/C", "setting": "[1]; 50 mg/kg/dose IP days 1-10, day 14", "value": 55, "unit": "%"}, {"measurement": "% T/C", "setting": "[1]; 50 mg/kg/dose IP days 1-10, day 21", "value": 87, "unit": "%"}, {"measurement": "% T/C", "setting": "[1]; 50 mg/kg/dose IP days 1-10, day 28", "value": 102, "unit": "%"}, {"measurement": "tumor growth was inhibited by", "setting": "[1]; day 7", "value": 66, "unit": "%"}, {"measurement": "tumor growth was inhibited by", "setting": "[1]; day 14", "value": 63, "unit": "%"}, {"measurement": "tumor growth was inhibited by", "setting": "[1]; day 21", "value": 49, "unit": "%"}, {"measurement": "tumor growth was inhibited by", "setting": "[1]; day 28", "value": 57, "unit": "%"}, {"measurement": "% T/C", "setting": "[1]; 100 mg/kg/dose IP days 1-10, day 7", "value": 34, "unit": "%"}, {"measurement": "% T/C", "setting": "[1]; 100 mg/kg/dose IP days 1-10, day 14", "value": 37, "unit": "%"}, {"measurement": "% T/C", "setting": "[1]; 100 mg/kg/dose IP days 1-10, day 21", "value": 51, "unit": "%"}, {"measurement": "% T/C", "setting": "[1]; 100 mg/kg/dose IP days 1-10, day 28", "value": 43, "unit": "%"}, {"measurement": "Tumor growth inhibition, dose dependence", "setting": "[1]; i.p. days 1-10", "value": "appeared to be dose dependent"}]}, {"smiles": "CCCN(CC#CC(=O)Nc1ccc2ncc(C#N)c(Nc3cccc(Br)c3)c2c1)CCC", "note": "[Example 170, N-{4-[(3-Bromophenyl)amino]-3-cyano-6-quinolinyl}-4-dipropylamino-2-butynamide]", "values": [{"measurement": "Inhibition of Cancer Cell Growth as Measured by Cell Number (IC50)", "setting": "SW620", "value": 0.1, "unit": "µg/mL"}, {"measurement": "Inhibition of Cancer Cell Growth as Measured by Cell Number (IC50)", "setting": "A431", "value": 0.03, "unit": "µg/mL"}, {"measurement": "Inhibition of Cancer Cell Growth as Measured by Cell Number (IC50)", "setting": "SKBR3", "value": 0.03, "unit": "µg/mL"}]}]}
